# Assay results: patent US6461997B1, “Triazole sulfones having herbicidal activity” (Monsanto Technology LLC, priority 1999, dated 2002)
# How the values were obtained:
# STEME (common chickweed) = assay: Pre-emergence herbicidal activity, cool season; format: in vivo, Stellaria media; settings: lowest tested rate with 80% or greater inhibition; rates 300, 100, 30, 10 g/ha; about 14 days
# Summary of the method: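 Seeds sown in sterilised fertilised topsoil received surface-applied compound in 50:50 acetone/water, typically at 300, 100, 30 and 10 g/ha, then greenhouse-grown at 30/21° C (warm-season species) or 18/13° C (cool-season species). Percent inhibition versus untreated plants was scored at about 14 days, giving GR80; an asterisk marks activity short of 80% at the top rate.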
# ECHCG (barnyardgrass) = assay: Pre-plant incorporated (PPI) herbicidal activity, warm season; format: in vivo, Echinochloa crus-galli; settings: PPI application
# Description: (§1) In another set of tests, the pre-plant incorporated (PPI) activity of compounds of this invention was evaluated on the same species as for the pre-emergence tests described above. In the PPI tests the following procedure, designed to simulate PPI application, was used.
# (§2) A pre-prepared topsoil mixture (described above) was placed in a pot and compacted to a depth of 1.0 to 1.25 cm from the top of the pot. Seeds of each of several monocotyledonous and dicotyledonous annual plant species were placed on top of the soil. A sufficient quantity of soil to cover the seeds and level fill the pot was weighed into an open container. A known amount of the test compound was dissolved or suspended in an organic solvent and applied by spraying to this cover soil. The cover soil was thoroughly mixed to distribute the test compound throughout the cover soil, and was then applied as a cover layer over the seeds. Untreated soil was used as a cover layer for control pots. After treatment the plants were placed in a greenhouse where they received 0.64 cm of overhead irrigation. All subsequent watering consisted of a light overhead mist and/or subirrigation as needed for germination and growth. Tables 9 and 10 below relate to warm season plant species which were placed after pre-emergence treatment in a greenhouse with a 30/21° C. day/night temperature regime. Tables 11 and 12 below relates to cool season plant species placed after pre-emergence treatment in a greenhouse or growth chamber with an 18/13° C. day/night temperature regime. Only the compounds of Examples 1, 6, 8, 11, 13 and 15-20 were included in PPI tests.
# (§3) Approximately 14 days after planting and treating, the plants were observed and herbicidal efficacy recorded as percent inhibition by comparison with untreated plants.
# XANST (cocklebur) = assay: as above; format: in vivo, Xanthium strumarium; settings: PPI application
# Description: as §1, §2, §3
# SETFA (giant foxtail) = assay: as above; format: in vivo, Setaria faberi; settings: PPI application
# Description: as §1, §2, §3
# SORVU (shattercane) = assay: as above; format: in vivo, Sorghum vulgare; settings: PPI application
# Description: as §1, §2, §3
# [1] = system: AGRRE (quackgrass (seedling)); assay: Pre-plant incorporated (PPI) herbicidal activity, cool season; format: in vivo, Elymus repens; settings: weed, PPI application
# Description: as §1, §2, §3
SMILES,"Pre-emergence activity GR80, STEME (STEME (common chickweed)) [g/ha]",Percent inhibition ECHCG (ECHCG (barnyardgrass); 30 g/ha) [%],Percent inhibition ECHCG (ECHCG (barnyardgrass); 100 g/ha) [%],Percent inhibition ECHCG (ECHCG (barnyardgrass); 300 g/ha) [%],Percent inhibition ECHCG (ECHCG (barnyardgrass); 900 g/ha) [%],Percent inhibition XANST (XANST (cocklebur); 30 g/ha) [%],Percent inhibition XANST (XANST (cocklebur); 100 g/ha) [%],Percent inhibition XANST (XANST (cocklebur); 300 g/ha) [%],Percent inhibition XANST (XANST (cocklebur); 900 g/ha) [%],Percent inhibition SETFA (SETFA (giant foxtail); 30 g/ha) [%],Percent inhibition SETFA (SETFA (giant foxtail); 100 g/ha) [%],Percent inhibition SETFA (SETFA (giant foxtail); 300 g/ha) [%],Percent inhibition SETFA (SETFA (giant foxtail); 900 g/ha) [%],Percent inhibition SORVU (SORVU (shattercane); 30 g/ha) [%],Percent inhibition SORVU (SORVU (shattercane); 100 g/ha) [%],Percent inhibition SORVU (SORVU (shattercane); 300 g/ha) [%],Percent inhibition SORVU (SORVU (shattercane); 900 g/ha) [%],Percent inhibition AGRRE ([1]; 30 g/ha) [%],Percent inhibition AGRRE ([1]; 100 g/ha) [%],Percent inhibition AGRRE ([1]; 300 g/ha) [%],other results
CCN(CC)C(=O)n1cnc(S(=O)(=O)C(F)(F)F)n1 [Example 2],10,40,80,100,100,0,0,0,0,20,100,100,90,50,100,95,100,0,0,30,Percent inhibition AGRRE ([1]; 900 g/ha): 60%
CCN(CC)C(=O)n1cnc(S(=O)(=O)C(F)(F)Cl)n1 [Example 3],30,100,99,100,100,0,0,0,60,100,100,100,100,70,95,100,100,20,50,80,Percent inhibition AGRRE ([1]; 900 g/ha): 95%
CCN(CC)C(=O)n1cnc(S(=O)(=O)C(F)(F)C(F)(F)Br)n1 [Example 4],10,20,100,100,100,0,0,0,40,100,100,100,100,0,45,100,100,50,70,80,Percent inhibition AGRRE ([1]; 900 g/ha): 90%
